In patent publication US9975903B2, “Condensed heterocyclic compound” (Takeda Pharmaceutical Company Limited, priority 2014, dated 2018) one finds inhibition data, which are given here for 12 compounds.

Each structure is given as a SMILES string. Where a name gives a salt, the structure may show the parent alone.

T1 sequence (P98073 whole entry): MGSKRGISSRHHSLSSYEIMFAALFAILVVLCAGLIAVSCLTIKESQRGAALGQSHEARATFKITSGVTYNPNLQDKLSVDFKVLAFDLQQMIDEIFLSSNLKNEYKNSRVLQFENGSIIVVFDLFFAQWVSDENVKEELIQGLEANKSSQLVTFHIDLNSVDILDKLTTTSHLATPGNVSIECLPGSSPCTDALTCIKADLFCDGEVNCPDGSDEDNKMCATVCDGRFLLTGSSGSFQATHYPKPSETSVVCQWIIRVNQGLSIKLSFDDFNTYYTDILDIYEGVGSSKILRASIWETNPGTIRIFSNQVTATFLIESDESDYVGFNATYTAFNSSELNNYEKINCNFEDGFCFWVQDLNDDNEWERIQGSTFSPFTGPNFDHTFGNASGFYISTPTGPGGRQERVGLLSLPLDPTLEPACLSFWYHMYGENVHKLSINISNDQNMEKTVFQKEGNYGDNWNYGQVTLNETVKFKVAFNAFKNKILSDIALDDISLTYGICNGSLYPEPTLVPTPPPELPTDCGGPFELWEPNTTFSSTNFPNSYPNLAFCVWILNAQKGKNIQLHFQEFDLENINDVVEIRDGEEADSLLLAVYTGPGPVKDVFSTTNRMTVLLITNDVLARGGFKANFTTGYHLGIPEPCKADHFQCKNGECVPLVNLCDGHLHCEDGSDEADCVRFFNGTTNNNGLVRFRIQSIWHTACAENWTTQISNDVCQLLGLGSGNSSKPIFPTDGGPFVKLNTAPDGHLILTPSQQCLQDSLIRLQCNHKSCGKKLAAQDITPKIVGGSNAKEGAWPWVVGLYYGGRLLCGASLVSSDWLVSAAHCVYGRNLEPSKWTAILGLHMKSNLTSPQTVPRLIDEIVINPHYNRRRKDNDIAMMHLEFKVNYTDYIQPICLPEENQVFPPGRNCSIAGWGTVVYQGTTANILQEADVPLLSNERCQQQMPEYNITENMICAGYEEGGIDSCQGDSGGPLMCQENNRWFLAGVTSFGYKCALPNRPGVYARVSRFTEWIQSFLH

The assay has as its target T1, Human recombinant enteropeptidase (Homo sapiens, UniProt P98073).
T1 construct: purchased ITSI-Biosciences LLC #REN-260
The assay can be described thus: Human enteropeptidase inhibitory activity (Test Example 1). Type of assay: biochemical. The note with it: 3.3 μM test compound; inhibition rate from fluorescence intensity at 2 hours after the start of the reaction; read-out: 3.3 μM Inhibition. In a few lines:
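Recombinant human enteropeptidase in 50 mM Tricine pH 8.0, 0.01% Tween 20, 10 mM CaCl2, with a 5FAM/CPQ2-quenched peptide substrate (2.1 μM solution before mixing). Compound came from 1 mM DMSO stock diluted 100-fold in buffer. Fluorescence (ex 485/em 535 nm) at 2 h gave % inhibition versus no-compound and no-enzyme controls.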
Regarding `N=C(N)Nc1ccc2c(c1)CCCOc1c(cccc1C(=O)N1CCC[C@H]1C(=O)O)OC2=O` [Example 12, 1-((10-carbamimidamido-13-oxo-6,7,8,13-tetrahydro-dibenzo[b,f] [1,4]dioxecin-4-yl)carbonyl)-L-proline], the inhibition – broadly, the drop in the measured response relative to a control, in per cent – at 3.3 µM is 101%.
As to `N=C(N)Nc1ccc2c(c1)CCCOc1c(cccc1C(=O)N(CC(=O)O)Cc1ccc(CC(=O)O)cc1)OC2=O` [Example 142, N-((10-carbamimidamido-13-oxo-6,7,8,13-tetrahydro-dibenzo[b,f] [1,4]dioxecin-4-yl)carbonyl)-N-(4-(carboxymethyl)benzyl)glycine], the inhibition at 3.3 µM was 98%.
On to `N=C(N)Nc1ccc2c(c1)CCCOc1c(cccc1C(=O)NCP(=O)(O)O)OC2=O` [Example 25, ((((10-carbamimidamido-13-oxo-6,7,8,13-tetrahydro-dibenzo[b,f] [1,4]dioxecin-4-yl)carbonyl)amino)methyl)phosphonic acid], for which the inhibition at 3.3 µM worked out at 102%.
For the compound `N=C(N)Nc1ccc2c(c1)CCCOc1c(cc(Cl)cc1C(=O)N[C@@H](CC(=O)O)C(=O)O)OC2=O` [Example 66, N-((10-carbamimidamido-2-chloro-13-oxo-6,7,8,13-tetrahydro-dibenzo[b,f] [1,4]dioxecin-4-yl)carbonyl)-L-aspartic acid], the inhibition at 3.3 µM is 101%.
In the case of `N=C(N)Nc1ccc2c(c1)CCc1c(CCC(=O)N[C@@H](CC(=O)O)C(=O)O)cccc1OC2=O` [Example 57, N-(3-(9-Carbamimidamido-6-oxo-11,12-dihydro-6H-dibenzo[b,f]oxocin-1-yl)propanoyl)-L-aspartic acid trifluoroacetate] it was 100%; in that of `N=C(N)c1ccc2c(c1)CCc1cc(C(=O)N[C@@H](CC(=O)O)C(=O)O)ccc1C(=O)O2` [Example 63, N-((2-carbamimidoyl-6-oxo-11,12-dihydro-6H-dibenzo[b,f]oxocin-9-yl)carbonyl)-L-aspartic acid], 93%; in that of `CN(CC(=O)N(C)[C@@H](CC(=O)O)C(=O)O)C(=O)c1cccc2c1OCCCc1cc(NC(=N)N)ccc1C(=O)O2` [Example 105, N-((10-carbamimidamido-13-oxo-6,7,8,13-tetrahydro-dibenzo[b,f] [1,4]dioxecin-4-yl)carbonyl)-N-methylglycyl-N-methyl-L-aspartic acid], 101%.
For `N=C(N)Nc1ccc2c(c1)CCCOc1cc(C(=O)N[C@@H](CC(=O)O)C(=O)O)ccc1OC2=O` [Example 81, N-((10-carbamimidamido-13-oxo-6,7,8,13-tetrahydro-dibenzo[b,f] [1,4]dioxecin-3-yl)carbonyl)-L-aspartic acid], the inhibition at 3.3 µM was 101%.
`N=C(N)Nc1ccc2c(c1)CCCCc1c(cccc1C(=O)O)OC2=O` [Example 34, 3-carbamimidamido-14-oxo-6,7,8,14-tetrahydro-6H-dibenzo[b, h]oxecine-9-carboxylic acid]: the inhibition at 3.3 µM worked out at 75%.
Turning to `N=C(N)Nc1ccc2c(c1)CCCOc1c(CCC(=O)NC(CC(=O)O)CC(=O)O)cccc1OC2=O` [Example 96, 3-((3-(10-carbamimidamido-13-oxo-6,7,8,13-tetrahydro-dibenzo[b,f] [1,4]dioxecin-4-yl)propanoyl)amino) pentanedioic acid], the inhibition at 3.3 µM was 101%.
The value for `N=C(N)Nc1ccc2c(c1)CCCc1c(cccc1C(=O)N[C@@H](CC(=O)O)C(=O)O)OC2=O` [Example 30, N-((9-Carbamimidamido-6-oxo-6,11,12,13-tetrahydrodibenzo[b,g]oxonin-1-yl)carbonyl)-L-aspartic acid trifluoroacetate] was 101%; that for `Cc1cc2c(c(C(=O)N[C@@H](CC(=O)O)C(=O)O)c1)OCCCc1cc(NC(=N)N)ccc1C(=O)O2` [Example 70, N-((10-carbamimidamido-2-methyl-13-oxo-6,7,8,13-tetrahydro-dibenzo[b,f] [1,4]dioxecin-4-yl)carbonyl)-L-aspartic acid] was 102%.
